Data: patent publication US6395762B1, “Phenyl amino squarate and thiadiazole dioxide beta-3 adrenergic receptor agonists” (American Home Products Corporation, priority 2000, dated 2002)
Where a name gives a salt, the structure may show the parent alone. Read-outs that look alike come from different tables or passages of the source.

How the values were obtained:
[1] = target: T1, human β3-AR (Homo sapiens, UniProt P13945); assay: cAMP accumulation (SPA) in CHO cells transfected with human β3-AR; format: cell-based; settings: for IA(β3): maximal response of compound relative to maximal response of isoproterenol at 10^−5 M
T1 construct: Full-length β3-AR clones (402 amino acids) containing the last 6 amino acids of hβ3-AR; expressed in transfected cells; host or cells: CHO (Chinese hamster ovary) cells
Experimental: The ability of the compounds of this invention to treat or inhibit disorders related to insulin resistance or hyperglycemia was confirmed with representative compounds of this invention in the following standard pharmacological test procedures, which measured the binding selectivity of the β1-, β2-, and β3-AR. Binding to the receptors was measured in Chinese Hamster ovary (CHO) cells that were transfected with β1-, β2-, and β3-AR's. The following briefly summarizes the procedures used and results obtained.
Cloning of Human β3-AR Genomic DNA: cDNA was constructed by ligating four polymerase chain reaction (PCR) products using the following primers: an ATG-Narl fragment, sense primer 5′-[…]3′ and anti-sense primer 5′[…]3′; a Narl-Accl fragment, 5′[…]3′ as sense and 5′[…]3′ as anti-sense primer; an Accli—Styl fragment, sense primer 5′[…]3′ and anti-sense primer 5′[…]3′ and a Styl-TAG fragment, with sense primer 5′ […]3′ and anti-sense primer 5′ […]3′ . The corresponding primer sequences are described in Mantzoros, C. S., et.al., Diabetes, 1996, 45, 909-914. The four fragments are ligated into a pUC 18 plasmid (Gibco-BRL) and sequenced. Full-length β3-AR clones (402 amino acids) containing the last 6 amino acids of hβ3-AR are prepared with the β3-βARpcDNA3 from ATTC.
Binding Procedure: Clones expressing receptor levels of 70 to 110 fmoles/mg protein were used in the test procedures. CHO cells were grown in 24-well tissue culture plates in Dulbecco's Modified Eagle Media with 10% fetal bovine serum, MEM non-essential amino acids, Penicillin—Streptomycin and Geneticin. On the day of test procedure, growth medium was replaced with preincubation media (Dulbecco's Modified Eagle Media) and incubated for 30 minutes at 37° C. Pre-incubation medium was replaced with 0.2 ml treatment medium containing DMEM media containing 250 μM IBMX (isobutyl-1-methylxantine) plus 1 mM ascorbic acid with test compound dissolved in DMSO. Test compounds were assayed over a concentration range of 10^−9 M to 10^−5 M for β3-AR transfected cells and 10^−8 to 10^−4 M for β1-AR and β2-AR transfected cells. Isoproterenol (10^−5 M) was used as an internal standard for comparison of activity. Cells were incubated at 37° C. on a rocker for 30 min with the β3-AR transfected cells and 15 min with β1-AR and β2-AR transfected cells. Incubation was stopped by the addition of 0.2N HCl and the acid was neutralized with 2.5N NaOH. The plates, containing the cells and neutralized media, were stored at −20° C. until ready to test for cAMP using the SPA test kit (Amersham).
Data Analysis and Results: Data collected from the SPA test procedure were analyzed as percent of the maximal isoproterenol response at 10^−5 M. Activity curves were plotted using the SAS statistical and graphics software.

[2] = CHO cells transfected with human β3-AR, cAMP by SPA, 30 min at 37° C., 10^−9 M to 10^−5 M, read-out: EC50(β3)
[3] = CHO cells transfected with human β3-AR

T1 sequence (P13945 whole entry): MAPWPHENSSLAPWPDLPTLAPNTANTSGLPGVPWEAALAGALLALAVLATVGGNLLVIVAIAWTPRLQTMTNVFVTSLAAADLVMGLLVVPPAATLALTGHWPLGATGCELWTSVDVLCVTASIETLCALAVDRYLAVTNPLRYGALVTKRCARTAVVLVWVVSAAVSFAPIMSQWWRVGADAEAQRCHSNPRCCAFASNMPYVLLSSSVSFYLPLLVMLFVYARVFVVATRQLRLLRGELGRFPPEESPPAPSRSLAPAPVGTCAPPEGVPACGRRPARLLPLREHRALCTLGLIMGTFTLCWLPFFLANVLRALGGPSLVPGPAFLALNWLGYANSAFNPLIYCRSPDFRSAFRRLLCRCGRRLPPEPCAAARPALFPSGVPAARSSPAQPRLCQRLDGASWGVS

EC50 [1, 2] [nM] | IA(β3) [1, 3] | melting point | Compound | EC50 [1] [nM]
233 | 0.47 | 125 to 131 °C | CCCCCCCCNc1c(Nc2ccc(CC(C)NC[C@H](O)COc3cccc4[nH]c5ccccc5c34)cc2)c(=O)c1=O (stereo partly drawn) [Compound 16, 3-(4-{2-[(2S)-3-(9H-Carbazol-4-yloxy)-2-hydroxy-propylamino]-propyl}-phenylamino)-4-octylamino-cyclobut-3-ene-1,2-dione] | –
11 | 1.45 | 203.5 to 206 °C | CCCCCCCCNC1=NS(=O)(=O)N=C1Nc1ccc(CC(C)NC[C@H](O)COc2ccc(O)cc2)cc1 (stereo partly drawn) [Compound 12, 4-((2S)-2-Hydroxy-3-{1-methyl-2-[4-(4-octylamino-1,1-dioxo-1H-1-.lambda(6).-[1,2,5]thiadiazol-3-ylamino)-phenyl]-1-ethylamino}-propoxy)-phenol] | –
– | – | 146 to 155 °C | CCCCCCCCCCNC1=NS(=O)(=O)N=C1Nc1ccc(CC(C)NC[C@H](O)COc2ccc(O)cc2)cc1 (stereo partly drawn) (as salt: HCl) [Compound 25, 4-((2S)-3-{2-[4-(4-Decylamino-1,1-dioxo-1H-1(lambda(6))-[1,2,5]thiadiazol-3-ylamino)-phenyl]-1-methyl-ethylamino}-2-hydroxy-propoxy)-phenol] | –
87 | 0.71 | 173 to 175 °C | CCCCCCCCNc1c(Nc2ccc(CC(C)NC[C@H](O)c3cccc(Cl)c3)cc2)c(=O)c1=O (stereo partly drawn) [Compound 10, 3-(4-{2-[(2R)-2-(3-Chloro-phenyl)-2-hydroxy-ethylamino]-propyl}-phenylamino)-4-octylamino-cyclobut-3-ene-1 2-dione] | –
64 | 0.64 | 121 to 124 °C | CCCCCCCCNC1=NS(=O)(=O)N=C1Nc1ccc(CC(C)NC[C@H](O)COc2cccc3[nH]c4ccccc4c23)cc1 (stereo partly drawn) [Compound 21, (2S)-1-(9H-Carbazol-4-yloxy)-3-{1-methyl-2-[4-(4-octylamino-1,1-dioxo-1H-1(lambda(6))-[1,2,5]thiadiazol-3-ylamino)-phenyl]-ethylamino}-propan-2-ol] | –
18 | 0.75 | 98 °C (dec.) | CCCCCCCCNC1=NS(=O)(=O)N=C1Nc1ccc(CCNC[C@H](O)COc2ccc(O)cc2)cc1 [Compound 5, 4-((2S)-2-Hydroxy-3-{2-[4-(4-octylamino-1,1-dioxo-1H-1.lambda(6).-[1,2,5]thiadiazol-3-ylamino)-phenyl]-ethylamino}-propoxy)-phenol] | –
81 | 0.41 | 146 to 155 °C | CCCCCCCCNc1c(Nc2ccc(CC(C)NC[C@H](O)COc3ccccc3)cc2)c(=O)c1=O (stereo partly drawn) [Compound 24, 3-{4-[2-((2S)-2-Hydroxy-3-phenoxy-propylamino)-propyl]-phenylamino}-4-octylamino-cyclobut-3-ene-1,2-dione] | –
– | – | 162 to 165 °C | CC(Cc1ccc(NC2=NS(=O)(=O)N=C2NCC2(c3ccccc3)CCCC2)cc1)NC[C@H](O)COc1ccc(O)cc1 (stereo partly drawn) (as salt: HCl) [Compound 31, 4-{(2S)-3-[2-(4-{1,1-Dioxo-4-[(1-phenyl-cyclopentylmethyl)-amino]-1H-1(lambda(6))-[1,2,5]thiadiazol-3-ylamino}-phenyl)-1-methyl-ethylamino]-2-hydroxy-propoxy}-phenol] | –

Continued, molecule first:

Compound | EC50 [1, 2] [nM] | IA(β3) [1, 3] | melting point | EC50 [1] [nM]
CCCCCCNC1=NS(=O)(=O)N=C1Nc1cccc(CC(C)NC[C@H](O)c2cccc(Cl)c2)c1 (stereo partly drawn) [Compound 9, (1R)-1-(3-Chloro-phenyl)-2-{2-[3-(4-hexylamino-1,1-dioxo-1H-1-.lambda(6) .-[1,2,5]thiadiazol-3-ylamino)-phenyl]-1-methyl-ethylamino}-ethanol] | 204 | 0.74 | 90 to 96 °C | –
CCCCCCCCCCNc1c(Nc2ccc(CCCNC[C@H](O)COc3cccc4[nH]c5ccccc5c34)cc2)c(=O)c1=O [Compound 17, 3-(4-{[(2S)-3-(9H-Carbazol-4-yloxy)-2-hydroxy-propylamino]-propyl}-phenylamino)-4-decylamino-cyclobut-3-ene-1,2-dione] | – | 0.31 | 225 °C | –
CCCCCCCCNC1=NS(=O)(=O)N=C1Nc1ccc(CC(C)(C)NC[C@H](O)COc2ccc(O)cc2)cc1 (as salt: HCl) [Compound 4] | – | – | 229.5 to 231.3 °C | –
CC(C)(Cc1ccc(NC2=NS(=O)(=O)N=C2NCC(c2ccccc2)c2ccccc2)cc1)NC[C@H](O)COc1ccc(OCc2ccccc2)cc1 [Compound 28] | 1420 | 0.83 | 222.5 to 224.5 °C (dec.) | –
CCCCCCCCNC1=NS(=O)(=O)N=C1Nc1ccc(CC(C)NC[C@H](O)c2ccc(O)c(NS(C)(=O)=O)c2)cc1 (some centres unmarked) [Compound 6] | 2 | 1.26 | 120 °C (dec.) | –
CCCCCCCCNC1=NS(=O)(=O)N=C1Nc1ccc(CC(C)NC[C@H](O)COc2ccccc2)cc1 (stereo partly drawn) [Compound 22, (2S)-1-{[1-methyl-2-(4-{[4-(octylamino)-1,1-dioxido-1,2,5-thiadiazol-3-yl]amino}phenyl)ethyl]amino}-3-phenoxypropan-2-ol] | – | 0.39 | 77 to 82 °C | –
CC(Cc1ccc(NC2=NS(=O)(=O)N=C2NCC2(c3ccccc3)CCCC2)cc1)NC[C@H](O)COc1ccc(OCc2ccccc2)cc1 (stereo partly drawn) [Compound 30, (2S)-1-(4-Benzyloxy-phenoxy)-3-[2-(4-{1 ,-dioxo-4-[(1-phenyl-cyclopentylmethyl)-amino]-1H-1(lambda(6))-[1,2,5]thiadiazol-3-ylamino}-phenyl)-1-methyl-ethylamino]-propan-2-ol] | 116 | 0.93 | 103 to 105 °C | –
CCCCCCCCNC1=NS(=O)(=O)N=C1Nc1cccc(CC(C)NCC(O)c2cccc(Cl)c2)c1 [Compound 2, (1R)-1-(3-Chloro-phenyl)-2-{1-methyl-2-[3-(4-octylamino-1,1-dioxo-1H-1-.lambda(6).-[1,2,5]thiadiazol-3-ylamino)-phenyl-]-ethylamino}-ethanol] | 198 | 0.42 | 90 to 96 °C | –
CCCCCCCCCCNc1c(Nc2ccc(CC(C)NC[C@H](O)COc3ccc(O)cc3)cc2)c(=O)c1=O (some centres unmarked) [Compound 15] | 86 | 0.97 | 130 to 132 °C | –
CC(Cc1ccc(NC2=NS(=O)(=O)N=C2NCCc2ccc(F)cc2)cc1)NC[C@H](O)COc1ccc(O)cc1 (some centres unmarked) [Compound 37] | 6 | 0.87 | 126 to 131 °C | –
CCCCCCCCCCNc1c(Nc2ccc(CC(C)NC[C@H](O)COc3ccccc3)cc2)c(=O)c1=O (some centres unmarked) [Compound 23] | 1360 | 0.64 | 144 to 155 °C | –
CCCCCCCCNC1=NS(=O)(=O)N=C1Nc1ccc(CC(C)NC[C@H](O)COc2ccc3c(c2)OCO3)cc1 (stereo partly drawn) [Compound 35, (2S)-1-(1,3-Benzodioxol-5-yloxy)-3-{1-methyl-2-[4-(4-octylamino-1,1-dioxo-1H-1.lambda(6).-[1,2,5]thiadiazol-3-ylamino)-phenyl]-ethylamino}-propan-2-ol] | 125 | 0.51 | 81 to 86 °C | –
CCCCNc1c(Nc2ccc(CC(C)NC[C@H](O)c3cccc(Cl)c3)cc2)c(=O)c1=O (stereo partly drawn) [Compound 1, 3-Butylamino-4-(4-{2-[(2R)-2-(3-chloro-phenyl)-2-hydroxy-ethylamino]-propyl}-phenylamino)-cyclobut-3-ene-1,2-dione] | – | 0.16 | 176 to 179 °C | 115
CCCCCCCCCCNC1=NS(=O)(=O)N=C1Nc1ccc(CC(C)NC[C@H](O)COc2cccc3[nH]c4ccccc4c23)cc1 (stereo partly drawn) [Compound 19, (2S)-1-(9H-Carbozol-4-yloxy)-3-{2-[4-(4-decylamino-1,1-dioxo-1H-1-.lambda(6).-[1,2,5]thiadiazol-3-ylamino)-phenyl]-1-methyl-ethylamino}-propan-2-ol] | – | 0.36 | – | –
